Assays:
hypoxic tumors [1] = experiment: Published studies: fluorocarbons as O2 delivery agents to sensitize hypoxic tumors to radiation therapy; type: in vivo; conditions: versus the liquid fluorocarbons fluosol and perfluoroctylbromide
Procedure: In these studies, fluorocarbons were administered systemically and oxygen was administered via inhalation to sensitize hypoxic tumors to radiation therapy. PFOB was effective at less than 1/100th the dose of the liquid fluorocarbons fluosol and […].

hypoxic tumors [2] = conditions: administered systemically, oxygen via inhalation; published studies; cited from earlier work

Question: What does the source list for `FC(F)(F)C(F)(F)C(F)(F)C(F)(F)C(F)(F)C(F)(F)C(F)(F)C(F)(F)Br` [PFOB, perfluoroctylbromide]?
Answer: effective dose as a fraction of the dose of liquid fluorocarbons (hypoxic tumors [1]): less than 1/100; Volume (dose as O2 delivery agent) (hypoxic tumors [2]): 0.002 to 0.015 L/kg; g/kg (fluorocarbon dose as O2 delivery agent) (hypoxic tumors [2]): 2 to 15 g/kg

Reference: patent US8822549B2, “Buffered oxygen therapeutic” (priority 2011, dated 2014)
